Test results reported in patent US20180339024A1, “PEPTIDES WITH ANTI-ANGIOGENIC, ANTI-LYMPHANGIOGENIC, AND ANTI-EDEMIC PROPERTIES AND NANOPARTICLE FORMULATIONS” (Asclepix Therapeutics, LLC, priority 2015, published 2018).
“Also recorded” adds a separate entry of the source.

Legend:
α5β1 integrin = α5β1 integrin (Homo sapiens, UniProt P05556+P08648); assay: Target identification of P07 (α5β1); assay type: binding
glioblastoma xenografts = assay: Glioblastoma xenografts; assay type: in vivo; conditions: not shown
[1] = tested on: vascular endothelial growth factor receptor (VEGFR); assay: P07 inhibition of VEGF receptor signaling in microvascular endothelial cells; assay type: cell-based; conditions: FIG. 1
Description: (§1) Integrins function as co-receptors for many growth factor receptors such as VEGFR, hepatocyte growth factor receptor (HGFR or c-met), insulin-like growth factor receptor (IGFR), and platelet derived growth factor receptor (PDGFR).

[2] = tested on: orthotopic triple-negative breast cancer (TNBC) xenografts; assay: Orthotopic triple-negative breast cancer xenografts; assay type: in vivo
[3] = tested on: VEGF induced neovascularization and leakage; assay: Mouse models of retinal and choroidal neovascularization and vascular leakage; assay type: in vivo
[4] = tested on: small cell lung cancer (SCLC) xenografts; assay: Small cell lung cancer xenografts; assay type: in vivo; conditions: not shown
[5] = tested on: transgenic mouse over-expressing the human form of vascular endothelial growth factor (VEGF) in the retina; assay: Vascular leakage and retinal detachment in transgenic mouse over-expressing human VEGF in the retina; assay type: in vivo
Description: The vascular leakage in this model is so severe that the blood that pools behind the retina causes retinal detachment.

[6] = tested on: insulin-like growth factor receptor (IGFR); assay: P07 inhibition of IGF receptor signaling in microvascular endothelial cells; assay type: cell-based; conditions: FIG. 1
Description: as §1

[7] = tested on: platelet derived growth factor receptor (PDGFR); assay: P07 inhibition of PDGF receptor signaling; assay type: cell-based
Description: as §1

[8] = tested on: hepatocyte growth factor receptor (HGFR or c-met); assay: P07 inhibition of HGF receptor signaling in microvascular endothelial cells; assay type: cell-based; conditions: FIG. 1
Description: as §1

αVβ3 integrin = αVβ3 integrin (Homo sapiens, UniProt P05106+P06756); assay: Target identification of P07 (αVβ3); assay type: binding
[9] = tested on: rabbit eye, human VEGF induced leakage; assay: VEGF induced vascular leakage (edema) model in the rabbit eye; assay type: in vivo; conditions: about 50 μg P07 in the eye prior to VEGF injection, fluorescein i.v. 3 days after VEGF, FIG. 3
Experimental: P07 was also tested in a model of edema in the rabbit eye. In this model human VEGF was injected directly into the eye causing the local vasculature to be leaky. The extent of this leak was assessed by measuring the amount of fluorescence in the eye resulting from the leakage of sodium fluorescein administered intravenously 3 days after VEGF injection.

[10] = Size characterization, Malvern Zetasizer Nano ZS90; assay type: physicochemical; conditions: 1 mg/ml in water
Experimental: N07 was suspended in water at 1 mg/ml and analyzed using a Malvern Zetasizer Nano ZS90. Z-average diameter and intensity-based size distribution were measured and recorded.

Chain of α5β1 integrin (P08648 42-894 limits assumed): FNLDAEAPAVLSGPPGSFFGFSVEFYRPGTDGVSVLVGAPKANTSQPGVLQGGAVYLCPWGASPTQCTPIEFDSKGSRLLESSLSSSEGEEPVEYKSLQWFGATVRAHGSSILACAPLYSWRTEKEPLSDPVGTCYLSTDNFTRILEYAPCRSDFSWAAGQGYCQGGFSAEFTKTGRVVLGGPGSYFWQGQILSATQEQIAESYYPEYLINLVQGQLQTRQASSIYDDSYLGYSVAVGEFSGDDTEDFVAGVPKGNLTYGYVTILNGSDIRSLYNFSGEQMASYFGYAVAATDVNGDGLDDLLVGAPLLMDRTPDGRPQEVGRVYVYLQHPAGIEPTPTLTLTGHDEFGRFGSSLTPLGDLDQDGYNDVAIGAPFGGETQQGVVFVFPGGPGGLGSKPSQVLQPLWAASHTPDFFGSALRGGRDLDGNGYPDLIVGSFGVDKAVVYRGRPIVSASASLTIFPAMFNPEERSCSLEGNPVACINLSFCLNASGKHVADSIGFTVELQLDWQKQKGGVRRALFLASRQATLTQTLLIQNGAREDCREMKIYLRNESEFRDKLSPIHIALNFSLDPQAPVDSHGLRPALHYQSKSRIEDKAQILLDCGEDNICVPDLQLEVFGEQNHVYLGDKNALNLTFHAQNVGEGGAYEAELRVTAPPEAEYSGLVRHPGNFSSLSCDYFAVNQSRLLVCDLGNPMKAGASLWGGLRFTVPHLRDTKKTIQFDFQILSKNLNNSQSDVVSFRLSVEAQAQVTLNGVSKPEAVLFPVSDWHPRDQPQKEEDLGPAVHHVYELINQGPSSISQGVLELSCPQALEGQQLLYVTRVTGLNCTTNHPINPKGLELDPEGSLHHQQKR
Chain of α5β1 integrin (P08648 895-1049 partner limits assumed): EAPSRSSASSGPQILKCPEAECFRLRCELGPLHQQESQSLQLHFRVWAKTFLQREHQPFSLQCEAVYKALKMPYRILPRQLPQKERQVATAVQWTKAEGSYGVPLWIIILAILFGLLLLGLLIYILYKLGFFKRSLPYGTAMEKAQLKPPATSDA
Chain of α5β1 integrin (P05556 21-798): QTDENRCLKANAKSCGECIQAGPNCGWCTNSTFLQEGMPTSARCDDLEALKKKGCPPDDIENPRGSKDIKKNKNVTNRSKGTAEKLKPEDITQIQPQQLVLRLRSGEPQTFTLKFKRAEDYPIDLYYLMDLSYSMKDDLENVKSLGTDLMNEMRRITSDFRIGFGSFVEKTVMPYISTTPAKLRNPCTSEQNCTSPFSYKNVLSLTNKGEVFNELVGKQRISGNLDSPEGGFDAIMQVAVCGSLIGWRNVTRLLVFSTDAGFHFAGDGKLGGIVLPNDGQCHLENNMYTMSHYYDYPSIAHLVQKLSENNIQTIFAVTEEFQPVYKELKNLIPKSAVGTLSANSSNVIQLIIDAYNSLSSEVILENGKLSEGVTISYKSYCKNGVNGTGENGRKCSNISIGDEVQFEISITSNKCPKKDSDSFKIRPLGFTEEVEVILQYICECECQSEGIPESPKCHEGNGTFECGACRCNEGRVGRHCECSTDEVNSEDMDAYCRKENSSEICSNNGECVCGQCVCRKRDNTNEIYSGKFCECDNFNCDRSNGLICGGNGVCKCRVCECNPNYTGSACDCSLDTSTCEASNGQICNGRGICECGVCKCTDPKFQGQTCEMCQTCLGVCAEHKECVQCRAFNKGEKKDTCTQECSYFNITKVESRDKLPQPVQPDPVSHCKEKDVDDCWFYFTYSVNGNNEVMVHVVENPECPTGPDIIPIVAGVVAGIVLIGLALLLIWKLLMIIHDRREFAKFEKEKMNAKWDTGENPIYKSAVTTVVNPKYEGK
Chain of αVβ3 integrin (P06756 31-889 limits assumed): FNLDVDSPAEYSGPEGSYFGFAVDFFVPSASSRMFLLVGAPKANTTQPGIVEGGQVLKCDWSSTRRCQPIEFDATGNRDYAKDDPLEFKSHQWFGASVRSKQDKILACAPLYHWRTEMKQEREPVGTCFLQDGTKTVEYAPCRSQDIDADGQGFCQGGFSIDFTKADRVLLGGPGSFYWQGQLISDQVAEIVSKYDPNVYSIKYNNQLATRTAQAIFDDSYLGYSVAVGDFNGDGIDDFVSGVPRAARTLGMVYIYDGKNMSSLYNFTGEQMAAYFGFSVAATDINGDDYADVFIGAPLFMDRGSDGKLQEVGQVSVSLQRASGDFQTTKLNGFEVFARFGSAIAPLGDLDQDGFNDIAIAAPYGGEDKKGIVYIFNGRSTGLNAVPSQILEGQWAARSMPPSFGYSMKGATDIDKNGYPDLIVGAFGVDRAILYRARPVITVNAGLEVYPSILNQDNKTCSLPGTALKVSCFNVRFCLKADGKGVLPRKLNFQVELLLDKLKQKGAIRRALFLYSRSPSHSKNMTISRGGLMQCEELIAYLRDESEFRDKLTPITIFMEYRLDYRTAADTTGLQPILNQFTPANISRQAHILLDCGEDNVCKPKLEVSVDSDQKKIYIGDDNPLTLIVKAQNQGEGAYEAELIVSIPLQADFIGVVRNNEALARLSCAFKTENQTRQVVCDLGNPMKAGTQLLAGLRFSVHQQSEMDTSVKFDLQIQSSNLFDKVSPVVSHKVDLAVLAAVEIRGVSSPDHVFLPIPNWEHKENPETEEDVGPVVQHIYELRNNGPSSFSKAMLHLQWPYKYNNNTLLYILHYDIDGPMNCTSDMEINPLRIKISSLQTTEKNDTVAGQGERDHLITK
Chain of αVβ3 integrin (P06756 891-1048 partner limits assumed): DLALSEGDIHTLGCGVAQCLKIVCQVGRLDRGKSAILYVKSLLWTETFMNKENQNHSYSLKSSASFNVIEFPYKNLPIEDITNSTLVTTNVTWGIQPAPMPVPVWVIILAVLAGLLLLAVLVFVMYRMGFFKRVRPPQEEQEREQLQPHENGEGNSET
Chain of αVβ3 integrin (P05106 27-788): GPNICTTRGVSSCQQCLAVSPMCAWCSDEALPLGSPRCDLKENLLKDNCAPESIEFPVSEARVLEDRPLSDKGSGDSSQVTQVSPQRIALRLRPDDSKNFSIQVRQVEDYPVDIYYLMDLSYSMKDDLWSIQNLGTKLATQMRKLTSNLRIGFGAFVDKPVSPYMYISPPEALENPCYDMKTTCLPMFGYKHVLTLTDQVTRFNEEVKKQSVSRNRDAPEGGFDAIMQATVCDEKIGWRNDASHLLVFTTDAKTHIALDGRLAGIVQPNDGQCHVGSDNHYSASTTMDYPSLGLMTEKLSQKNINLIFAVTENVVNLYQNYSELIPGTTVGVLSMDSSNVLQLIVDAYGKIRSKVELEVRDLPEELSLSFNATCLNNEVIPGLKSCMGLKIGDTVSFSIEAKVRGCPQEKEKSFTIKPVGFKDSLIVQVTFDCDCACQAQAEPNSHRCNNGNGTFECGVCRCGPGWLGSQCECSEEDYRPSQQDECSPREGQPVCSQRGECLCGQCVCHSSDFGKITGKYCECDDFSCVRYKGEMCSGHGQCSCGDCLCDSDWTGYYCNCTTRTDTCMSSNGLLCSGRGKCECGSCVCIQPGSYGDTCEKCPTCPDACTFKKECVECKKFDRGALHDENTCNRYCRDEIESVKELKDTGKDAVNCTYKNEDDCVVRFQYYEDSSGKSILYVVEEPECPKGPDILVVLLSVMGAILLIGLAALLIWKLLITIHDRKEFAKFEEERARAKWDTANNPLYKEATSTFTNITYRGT

| Substance | identified target: α5β1 integrin (α5β1 integrin) | growth of glioblastoma xenografts (glioblastoma xenografts) | inhibition of signaling from VEGFR [1] | growth of orthotopic TNBC xenografts ([2]; FIG. 4) | tumor vasculature / neovascularization in orthotopic TNBC xenografts ([2]; FIG. 5) | VEGF induced neovascularization and leakage [3] | growth of SCLC xenografts [4] | vascular leakage [5] | retinal detachment ([5]; FIG. 2) | inhibition of signaling from IGFR [6] | inhibition of signaling from PDGFR [7] | inhibition of signaling from HGFR (c-met) [8] | identified target: αVβ3 integrin (αVβ3 integrin) | vascular leakage (sodium fluorescein fluorescence in the eye) [9] | PDI [10] | Z-Average [10] |
| --- | --- | --- | --- | --- | --- | --- | --- | --- | --- | --- | --- | --- | --- | --- | --- | --- |
| LRRFSTAPFAFIDINDVINF [P07] | identified to be the α5β1 and αVβ3 integrins | inhibits the growth | inhibit signaling | inhibits the growth; also recorded: dose dependent manner | dramatically diminished vasculature; also recorded: inhibits neovascularization | strongly inhibits | inhibits the growth | inhibit vascular leakage | almost completely blocked retinal detachment | inhibit signaling | inhibit signaling | inhibit signaling | identified to be the α5β1 and αVβ3 integrins | dramatically inhibited | – | – |
| PLGA-PEG-P07: nanoparticles made completely of PLGA-PEG-P07 conjugated polymer (LRRFSTAPFAFIDINDVINF) | – | – | – | – | – | – | – | – | – | – | – | – | – | – | 0.29 | 77.59 ± 2.65 nm·days |
